Assays:
[1] = cited from earlier work
[2] = given along with vortioxetine (Fig. 4)
[3] = cocktail with vortioxetine (Fig. 4)

**Q.** What does the source list for `COc1ccc2c(c1)[C@]13CCCC[C@@H]1[C@H](C2)N(C)CC3` [dextromethorphan]?
**A.** AUC(0–inf), 90% CI lower limit (with vs without vortioxetine) [1, 3]: 58%; C max, 90% CI lower limit (with vs without vortioxetine) [1, 3]: 68%

**Q.** With `Cn1c(=O)c2c(ncn2C)n(C)c1=O` [caffeine] as the compound, how does the “effect of vortioxetine on the pharmacokinetics of the co-administered drug” value (“effect of vortioxetine” for short) [2] read?
**A.** Its value is “No effect”.

**Q.** For `O=C([O-])[O-].[Li+].[Li+]` [lithium], which “effect of vortioxetine” value [2] is on record?
**A.** The value was “No effect”.

**Q.** With `COc1ccc2[nH]c([S+]([O-])Cc3ncc(C)c(OC)c3C)nc2c1` (stereo not shown) [omeprazole] as the compound, how does the “C max, upper limit of the 90% CI (with vs without vortioxetine)” value ([1]; multiple doses of vortioxetine (Fig. 4)) read?
**A.** The value was 130%.

**Q.** And the “90% CI for AUC(0–inf) (with vs without vortioxetine)” value ([1]; multiple doses of vortioxetine, within limits)?
**A.** Its value is 80–125%.

**Q.** And the “effect of vortioxetine” value [2]?
**A.** The value was “no apparent effect”.

**Q.** With `C#C[C@]1(O)CC[C@H]2[C@@H]3CCC4=CC(=O)CC[C@@H]4[C@H]3CC[C@@]21CC` [levonorgestrel] as the compound, how does the “effect of vortioxetine” value [2] read?
**A.** The value was “No effect”.

**Q.** Which “effect of vortioxetine” value [2] does the source give for `CN1C(=O)CN=C(c2ccccc2)c2cc(Cl)ccc21` [diazepam] here?
**A.** Its value is “No effect”.

**Q.** Which “effect of vortioxetine” value [2] does the source give for `Cc1ncc2n1-c1ccc(Cl)cc1C(c1ccccc1F)=NC2` [midazolam] here?
**A.** Its value is “No effect”.

**Q.** For `CCO` [ethanol], which “effect of vortioxetine” value [2] is on record?
**A.** Its value is “No effect”.

**Q.** Which “effect of vortioxetine” value [2] does the source give for `CC(=O)Oc1ccccc1C(=O)O` [aspirin] here?
**A.** Its value is “No effect”.

**Q.** For `C#C[C@]1(O)CC[C@H]2[C@@H]3CCc4cc(O)ccc4[C@H]3CC[C@@]21C` [ethinyl estradiol], which “effect of vortioxetine” value [2] is on record?
**A.** Its value is “No effect”.
